Measurements published in paper PMC7377239, “Cardiovascular Effects of Polychlorinated Biphenyls and Their Major Metabolites” (Environmental Health Perspectives, 2020).
Where two headings read alike, the source gives them in different places.

Test system: iCell cardiomyocytes (human iPSC-derived cardiomyocytes)
Experiment: High-content imaging of cytotoxicity and mitochondrial integrity in iPSC-CMs
Format: cell-based
In short: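 Cardiomyocytes grown on gelatinized 384-well plates received fresh medium on the experiment day and were then exposed to chemicals at 0.01–100μM. Nuclei and mitochondria were labeled with Hoechst 33342 and MitoTracker™ Orange, then fixed, and imaged on an ImageXpress® Micro Confocal system. Four-parameter logistic concentration–response fits in R, with a one-standard-deviation vehicle cutoff, gave point-of-departure values.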

[1] = 0.10 µM, 24hrs, 0.00 µM = 100.00
[2] = 10.00 µM, 24hrs, 0.00 µM = 100.00
[3] = 100.00 µM, 90min, 0.00 µM = 100.00
[4] = 100.00 µM, 24hrs, 0.00 µM = 100.00
[5] = 0.01 µM, 90min, 0.00 µM = 100.00
[6] = 0.01 µM, 24hrs, 0.00 µM = 100.00
[7] = 0.10 µM, 90min, 0.00 µM = 100.00
[8] = 1.00 µM, 90min, 0.00 µM = 100.00
[9] = 1.00 µM, 24hrs, 0.00 µM = 100.00
[10] = 10.00 µM, 90min, 0.00 µM = 100.00

Structure (SMILES): Clc1ccc(Cl)c(-c2c(Cl)ccc(Cl)c2Cl)c1Cl [(+)-PCB 136, 2,2′,3,3′,6,6′-hexachlorobiphenyl]
- cm.mii.24hrs [1]: 104.89
- cm.mito.24hrs [2]: 66.95
- cm.mii.90min [3]: 30.66
- cm.mito.90min [3]: 0.83
- cm.mii.24hrs [4]: 35.96
- viability at 0.01 µM (Homo sapiens, Cardiomyocyte, 1.5 h, 0.01 µM, 90min, 0.00 µM = 100.00, read-out: cm.cam.90min): 94%
- activity at 0.01 µM (Homo sapiens, Cardiomyocyte, 1.5 h, 0.01 µM, 90min, 0.00 µM = 100.00, read-out: cm.mii.90min): 115%
- activity at 0.01 µM (Homo sapiens, Cardiomyocyte, 1.5 h, 0.01 µM, 90min, 0.00 µM = 100.00, read-out: cm.mito.90min): 94.1%
- viability at 0.01 µM (Homo sapiens, Cardiomyocyte, 1.5 h, 0.01 µM, 90min, 0.00 µM = 100.00, read-out: cm.tc.90min): 94.5%
- viability at 0.1 µM (Homo sapiens, Cardiomyocyte, 1.5 h, 0.10 µM, 90min, 0.00 µM = 100.00, read-out: cm.cam.90min): 100%
- activity at 0.1 µM (Homo sapiens, Cardiomyocyte, 1.5 h, 0.10 µM, 90min, 0.00 µM = 100.00, read-out: cm.mii.90min): 108%
- activity at 0.1 µM (Homo sapiens, Cardiomyocyte, 1.5 h, 0.10 µM, 90min, 0.00 µM = 100.00, read-out: cm.mito.90min): 100%
- viability at 0.1 µM (Homo sapiens, Cardiomyocyte, 1.5 h, 0.10 µM, 90min, 0.00 µM = 100.00, read-out: cm.tc.90min): 100%
- viability at 1 µM (Homo sapiens, Cardiomyocyte, 1.5 h, 1.00 µM, 90min, 0.00 µM = 100.00, read-out: cm.cam.90min): 97.7%
- activity at 1 µM (Homo sapiens, Cardiomyocyte, 1.5 h, 1.00 µM, 90min, 0.00 µM = 100.00, read-out: cm.mii.90min): 103%
- activity at 1 µM (Homo sapiens, Cardiomyocyte, 1.5 h, 1.00 µM, 90min, 0.00 µM = 100.00, read-out: cm.mito.90min): 97.5%
- viability at 1 µM (Homo sapiens, Cardiomyocyte, 1.5 h, 1.00 µM, 90min, 0.00 µM = 100.00, read-out: cm.tc.90min): 97.8%
- viability at 10 µM (Homo sapiens, Cardiomyocyte, 1.5 h, 10.00 µM, 90min, 0.00 µM = 100.00, read-out: cm.cam.90min): 101%
- activity at 10 µM (Homo sapiens, Cardiomyocyte, 1.5 h, 10.00 µM, 90min, 0.00 µM = 100.00, read-out: cm.mii.90min): 101%
- activity at 10 µM (Homo sapiens, Cardiomyocyte, 1.5 h, 10.00 µM, 90min, 0.00 µM = 100.00, read-out: cm.mito.90min): 102%
- viability at 10 µM (Homo sapiens, Cardiomyocyte, 1.5 h, 10.00 µM, 90min, 0.00 µM = 100.00, read-out: cm.tc.90min): 102%
- viability at 0.01 µM (Homo sapiens, Cardiomyocyte, 24 h, 0.01 µM, 24hrs, 0.00 µM = 100.00, read-out: cm.cam.24hrs): 92.8%
- activity at 0.01 µM (Homo sapiens, Cardiomyocyte, 24 h, 0.01 µM, 24hrs, 0.00 µM = 100.00, read-out: cm.mii.24hrs): 90.7%
- activity at 0.01 µM (Homo sapiens, Cardiomyocyte, 24 h, 0.01 µM, 24hrs, 0.00 µM = 100.00, read-out: cm.mito.24hrs): 95.4%
- viability at 0.01 µM (Homo sapiens, Cardiomyocyte, 24 h, 0.01 µM, 24hrs, 0.00 µM = 100.00, read-out: cm.tc.24hrs): 95.4%
- viability at 0.1 µM (Homo sapiens, Cardiomyocyte, 24 h, 0.10 µM, 24hrs, 0.00 µM = 100.00, read-out: cm.cam.24hrs): 96.6%
- activity at 0.1 µM (Homo sapiens, Cardiomyocyte, 24 h, 0.10 µM, 24hrs, 0.00 µM = 100.00, read-out: cm.mito.24hrs): 98.1%
- viability at 0.1 µM (Homo sapiens, Cardiomyocyte, 24 h, 0.10 µM, 24hrs, 0.00 µM = 100.00, read-out: cm.tc.24hrs): 96.6%
- viability at 1 µM (Homo sapiens, Cardiomyocyte, 24 h, 1.00 µM, 24hrs, 0.00 µM = 100.00, read-out: cm.cam.24hrs): 95.6%
- activity at 1 µM (Homo sapiens, Cardiomyocyte, 24 h, 1.00 µM, 24hrs, 0.00 µM = 100.00, read-out: cm.mii.24hrs): 86.4%
- activity at 1 µM (Homo sapiens, Cardiomyocyte, 24 h, 1.00 µM, 24hrs, 0.00 µM = 100.00, read-out: cm.mito.24hrs): 97%
- viability at 1 µM (Homo sapiens, Cardiomyocyte, 24 h, 1.00 µM, 24hrs, 0.00 µM = 100.00, read-out: cm.tc.24hrs): 96.3%
- activity at 10 µM (Homo sapiens, Cardiomyocyte, 24 h, 10.00 µM, 24hrs, 0.00 µM = 100.00, read-out: cm.mii.24hrs): 99.9%
- viability at 100 µM (Homo sapiens, Cardiomyocyte, 24 h, 100.00 µM, 24hrs, 0.00 µM = 100.00, read-out: cm.cam.24hrs): 1.96%
- activity at 100 µM (Homo sapiens, Cardiomyocyte, 24 h, 100.00 µM, 24hrs, 0.00 µM = 100.00, read-out: cm.mito.24hrs): 1.15%
- viability at 100 µM (Homo sapiens, Cardiomyocyte, 24 h, 100.00 µM, 24hrs, 0.00 µM = 100.00, read-out: cm.tc.24hrs): 2.72%
- minimal effective concentration (Homo sapiens, Cardiomyocyte, 24 h, cardiomyocytes (cm), mii, 24 hrs, read-out: POD cm.mii.24hrs): 50.8 µM
- minimal effective concentration (Homo sapiens, Cardiomyocyte, 24 h, read-out: cm.mii.24hrs POD): 50.8 µM

Structure (SMILES): Clc1ccc(Cl)c(-c2c(Cl)ccc(Cl)c2Cl)c1Cl [(-)-PCB 136, 2,2′,3,3′,6,6′-hexachlorobiphenyl]
- cm.mii.90min [5]: 112.68
- cm.mito.90min [5]: 96.45
- cm.mii.24hrs [6]: 102.85
- cm.mito.24hrs [6]: 101.32
- cm.mii.90min [7]: 114.32
- cm.mito.90min [7]: 99.06
- cm.mii.24hrs [1]: 75.71
- cm.mito.24hrs [1]: 97.62
- cm.mii.90min [8]: 108.72
- cm.mito.90min [8]: 99.64
- cm.mii.24hrs [9]: 98.56
- cm.mito.24hrs [9]: 95.39
- cm.mii.90min [10]: 109.00
- cm.mito.90min [10]: 96.91
- cm.mii.24hrs [2]: 82.93
- cm.mito.24hrs [2]: 97.40
- cm.mii.90min [3]: 5.98
- cm.mito.90min [3]: 0.07
- cm.mii.24hrs [4]: 87.76
- cm.mito.24hrs [4]: 0.79
